Measured values: the Kinase Knowledgebase extract (Sharma et al. 2016)

Target: CDK2 (UniProt P24941)
Assay: Enzyme Assay

IC50: 2000 nM
SMILES: COc1ccc(CNc2nc(NCCCNC(=O)[C@H]3CSC(=O)N3)nc3c2ncn3C(C)C)cc1
